# Experimental data reported in ChEMBL document CHEMBL4616633, “Citral Inhibits the Inflammatory Response and Hyperalgesia in Mice: The Role of TLR4, TLR2/Dectin-1, and CB2 Cannabinoid Receptor/ATP-Sensitive K+ Channel Pathways” (J Nat Prod, 2020).
# Activity calls are given as the source filed them. The calls are words filed in the database; no cut-off is given here.
# What was measured:
# Mus musculus [1] = test: Inhibition of carrageenan-induced paw edema in Swiss mouse at 1 mg/kg, ip pretreated for 30 mins followed by carrageenan-stimulation and measured after 6 hrs; type: functional, organism-based
# Mus musculus [2] = test: Inhibition of carrageenan-induced thermal allodynia in Swiss mouse at 1 mg/kg, ip pretreated for 30 mins followed by carrageenan-stimulation and measured after 6 hrs; type: functional, organism-based
# Mus musculus [3] = test: Inhibition of carrageenan-induced paw edema in Swiss mouse at 0.5 mg/kg, sc pretreated for 1 hr followed by carrageenan-stimulation and measured after 6 hrs relative to control; type: functional
# Mus musculus [4] = test: Inhibition of carrageenan-induced thermal allodynia in Swiss mouse at 0.5 mg/kg, sc pretreated for 1 hr followed by carrageenan-stimulation and measured after 6 hrs relative to control; type: functional
# Mus musculus [5] = test: Inhibition of zymosan-induced TLR2/Dectin-1 Signaling Pathway assessed as reduction in paw edema in Swiss mouse at 0.5 mg/kg, sc pretreated for 1 hr followed by […] and measured after 48 hrs relative to control; type: functional
Compound,inhibition (Mus musculus [1]),inhibition (Mus musculus [2]),inhibition in vivo at 0.5 mg/kg (Mus musculus [3]),inhibition in vivo at 0.5 mg/kg (Mus musculus [4]),inhibition in vivo at 0.5 mg/kg (Mus musculus [5])
COc1ccc(C(=O)c2c(C)n(CCN3CCOCC3)c3cc(I)ccc23)cc1,inactive,inactive,,,
C[C@@H]1C[C@H]2[C@@H]3CCC4=CC(=O)C=C[C@]4(C)[C@@]3(F)[C@@H](O)C[C@]2(C)[C@@]1(O)C(=O)CO [DEXAMETHASONE],,,82%,72%,45%
